Test results taken from PubChem BioAssay (NCI).
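Cells were grown in 96-well plates and exposed to each compound for 48 hours at five concentrations; endpoints were interpolated linearly between bracketing concentrations, or set to the highest concentration if not reached. TGI marks complete inhibition of growth.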

Legend:
Assay in all cases: growth of human tumour cells (NCI), 48 h
HL-60(TB) leukemia = test system: HL-60(TB) leukemia
HCC-2998 colon = test system: HCC-2998 colon
SK-MEL-28 melanoma = test system: SK-MEL-28 melanoma
K-562 leukemia = test system: K-562 leukemia
T-47D breast = test system: T-47D breast
SW-620 colon = test system: SW-620 colon
SN12C renal = test system: SN12C renal
EKVX NSCLC = test system: EKVX NSCLC
OVCAR-8 ovarian = test system: OVCAR-8 ovarian
SK-OV-3 ovarian = test system: SK-OV-3 ovarian

O/N=C1\C/C(=N\O)c2c(Br)sc(Br)c21
TGI (HL-60(TB) leukemia): > 100 µM
TGI (HCC-2998 colon): 50.2 µM
TGI (SK-MEL-28 melanoma): 63.2 µM
TGI (K-562 leukemia): > 100 µM
TGI (T-47D breast): > 100 µM
TGI (SW-620 colon): 72.7 µM
TGI (SN12C renal): > 100 µM
TGI (EKVX NSCLC): > 100 µM
TGI (OVCAR-8 ovarian): 40.3 µM
TGI (SK-OV-3 ovarian): > 100 µM

COc1cc(C(c2ccccc2)N2C(=O)CC[C@H]2C(=O)O)cc(OC)c1OC (some centres undefined)
TGI (HL-60(TB) leukemia): > 100 µM
TGI (HCC-2998 colon): > 100 µM
TGI (SK-MEL-28 melanoma): > 100 µM
TGI (K-562 leukemia): > 100 µM
TGI (T-47D breast): > 100 µM
TGI (SW-620 colon): > 100 µM
TGI (SN12C renal): > 100 µM
TGI (EKVX NSCLC): > 100 µM
TGI (OVCAR-8 ovarian): > 100 µM
TGI (SK-OV-3 ovarian): > 100 µM

Cc1cnc2c(c1)C(=O)N(c1ccc(Oc3ccccc3)cc1)S2(=O)=O
TGI (HL-60(TB) leukemia): > 100 µM
TGI (HCC-2998 colon): > 100 µM
TGI (SK-MEL-28 melanoma): > 100 µM
TGI (K-562 leukemia): > 100 µM
TGI (T-47D breast): > 100 µM
TGI (SW-620 colon): > 100 µM
TGI (SN12C renal): > 100 µM
TGI (EKVX NSCLC): > 100 µM
TGI (OVCAR-8 ovarian): > 100 µM
TGI (SK-OV-3 ovarian): > 100 µM

N#Cc1sc2c(c1OC(=O)c1ccco1)c(=O)n(-c1ccccc1)c(=S)n2-c1ccccc1
TGI (HL-60(TB) leukemia): > 100 µM
TGI (HCC-2998 colon): > 100 µM
TGI (SK-MEL-28 melanoma): > 100 µM
TGI (K-562 leukemia): 96 µM
TGI (T-47D breast): 77.5 µM
TGI (SW-620 colon): > 100 µM
TGI (SN12C renal): > 100 µM
TGI (EKVX NSCLC): > 100 µM
TGI (OVCAR-8 ovarian): > 100 µM
TGI (SK-OV-3 ovarian): > 100 µM

CCC[N+](C)(C)CCCNC(=O)c1c(O)c2ccccc2[nH]c1=O
TGI (HL-60(TB) leukemia): > 100 µM
TGI (HCC-2998 colon): > 100 µM
TGI (SK-MEL-28 melanoma): > 100 µM
TGI (K-562 leukemia): > 100 µM
TGI (T-47D breast): > 100 µM
TGI (SW-620 colon): > 100 µM
TGI (SN12C renal): > 100 µM
TGI (EKVX NSCLC): > 100 µM
TGI (OVCAR-8 ovarian): > 100 µM
TGI (SK-OV-3 ovarian): > 100 µM

CCOc1ccc2c(c1)C(/C(C(Cl)=C(Cl)Cl)=[N+](/[O-])OC(=O)c1ccccc1)=N2
TGI (HL-60(TB) leukemia): > 100 µM
TGI (HCC-2998 colon): > 100 µM
TGI (SK-MEL-28 melanoma): > 100 µM
TGI (K-562 leukemia): > 100 µM
TGI (T-47D breast): > 100 µM
TGI (SW-620 colon): > 100 µM
TGI (SN12C renal): > 100 µM
TGI (EKVX NSCLC): > 100 µM
TGI (OVCAR-8 ovarian): > 100 µM
TGI (SK-OV-3 ovarian): > 100 µM

COC(=O)C1=C(C)NC(C)=C(C(=O)OC)C1c1cccc(/[N+]([O-])=C/c2ccccc2)c1
TGI (HL-60(TB) leukemia): 71 µM
TGI (HCC-2998 colon): > 100 µM
TGI (SK-MEL-28 melanoma): 31.6 µM
TGI (T-47D breast): 41.6 µM
TGI (SW-620 colon): 38 µM
TGI (EKVX NSCLC): > 100 µM
TGI (OVCAR-8 ovarian): 32.7 µM
TGI (SK-OV-3 ovarian): > 100 µM

CC(C)(C)OC(=O)N1C(=O)C2CCCC21 (centres undefined)
TGI (HL-60(TB) leukemia): > 100 µM
TGI (HCC-2998 colon): > 100 µM
TGI (SK-MEL-28 melanoma): > 100 µM
TGI (T-47D breast): > 100 µM
TGI (SW-620 colon): > 100 µM
TGI (SN12C renal): > 100 µM
TGI (OVCAR-8 ovarian): > 100 µM
TGI (SK-OV-3 ovarian): > 100 µM

COP(=O)(CP(=O)(OC)OCCC(C)CCC=C(C)C)OC (centres undefined)
TGI (HCC-2998 colon): > 100 µM
TGI (SK-MEL-28 melanoma): > 100 µM
TGI (K-562 leukemia): > 100 µM
TGI (T-47D breast): > 100 µM
TGI (SW-620 colon): > 100 µM
TGI (SN12C renal): > 100 µM
TGI (EKVX NSCLC): > 100 µM
TGI (OVCAR-8 ovarian): > 100 µM
TGI (SK-OV-3 ovarian): > 100 µM

CCCCCCc1ccc(CCCCCCCC(=O)O)o1
TGI (HCC-2998 colon): > 100 µM
TGI (SK-MEL-28 melanoma): > 100 µM
TGI (K-562 leukemia): 71.6 µM
TGI (T-47D breast): > 100 µM
TGI (SW-620 colon): > 100 µM
TGI (SN12C renal): > 100 µM
TGI (EKVX NSCLC): > 100 µM
TGI (OVCAR-8 ovarian): > 100 µM
TGI (SK-OV-3 ovarian): > 100 µM

C=C1c2c(n(S(=O)(=O)c3ccccc3)c3ccccc23)[C@@]2(C(=O)OC)CC3C=CC2N1C3
TGI (HL-60(TB) leukemia): > 100 µM
TGI (HCC-2998 colon): > 100 µM
TGI (SK-MEL-28 melanoma): > 100 µM
TGI (K-562 leukemia): > 100 µM
TGI (T-47D breast): > 100 µM
TGI (SW-620 colon): > 100 µM
TGI (SN12C renal): > 100 µM
TGI (EKVX NSCLC): > 100 µM
TGI (OVCAR-8 ovarian): > 100 µM
TGI (SK-OV-3 ovarian): > 100 µM
